Patent US20170231922A1, “3, 5-DIHYDROXY-4-ISOPROPYLSTILBENE (DHIS) AS MITICIDAL AGENT AND ITS THERAPEUTIC USES” (Horizon GenoMed Therapeutics, Inc, priority 2016, published 2017)

Key:
D. bravis = assay: In vitro miticidal assay, survival of isolated human demodex mites under microscopy; conditions: for Number mites dead: 30 mites per slide
Protocol: (§1) DHIS has potent miticidal activities. As described herein, an in vitro miticidal assay was performed to determine the miticidal activities of DHIS by using human demodex mites prepared with pressure scraping method, following by microscopic examination of the survival time of demodex under microscopy, using the method described in Chinese Journal of Parasitology and Parasitic Diseases 2011; 29:258-263.
(§2) In vitro miticidal assay was performed using human demodex mites prepared with pressure scraping method, following by microscopic examination of the survival time of demodex under microscopy, using the method described in Chinese Journal of Parasitology and Parasitic Diseases (Supra).
(§3) […] The slides were incubated at room temperature (20° C.) and under 70% humidity. The slides were examined under microscopy every 60 minutes for 8 hours after treatment. At each time point, the percentage of dead mites (no movements for 1 minute) was recorded for each treatment concentration.

D. folliculorum = assay: as above; conditions: for Number mites dead / (%) mites dead: D. folliculorum; for Number mites dead: 30 mites per slide
Protocol: as §1, §2, §3

demodex mites [1] = assay: Topical DHIS cream in volunteers with papulopustular rosacea (FIG. 1); assay type: in vivo, human; conditions: DHIS 0.75% cream twice daily
Protocol: (§4) A total of 20 volunteers (10 with papulopustular rosacea, 10 with papulopustular acne vulgaris) were recruited for this observation.
(§5) For each volunteer, the duration of the condition, the baseline sign and symptoms of their facial conditions and the severity of their condition were recorded. For the signs of the condition, papules and pustules were counted as total number for each individual. Erythema was rated as severe (3, deep red to purple), moderate (2, red), mild (1, pink), or none (0, normal color). For burning and pruritus, visual analogue scale (10 cm line) was used, with the score recorded from 0 (no symptoms) to 10 cm (most severe). In addition, the baseline demodex mite density of the perinasal skin was measured using the modified pressure-scraping technique. For the purpose of this study, both D. folliculorum and D. bravis were counted together. Then each volunteer used DHIS topical cream at 0.75% concentration, twice daily to the affected areas on the face. They were seen again at 4 weeks, when the clinical signs and symptoms were recorded. Further the demodex mite density was assessed again using the modified pressure/scraping technique.
(§6) Individuals with papulopustular rosacea (FIG. 1, N=10) and acne (FIG. 2, N=10) received DHIS 0.75% cream twice daily for 4 weeks. The demodex mite density (mite/cm^2) and clinical signs/symptoms are assessed at the baseline and again at 4 weeks. Papules and pustules are counted or the entire facial area for each individual. Erythema was graded as mild (1, pink), moderate (2, red), or severe (3, purple-red), whereas itchiness and burning sensation were graded according to a 10 cm visual analogue scale. * denotes p<0.05 (t-test)

demodex mites [2] = assay: Topical DHIS cream in volunteers with papulopustular acne vulgaris (FIG. 2); assay type: in vivo, human; conditions: acne patients, DHIS 0.75% cream twice daily
Protocol: as §4, §5, §6

demodex mites [3] = assay: Case study, rosacea patient; assay type: in vivo, human; conditions: Case 1, person with rosacea, DHIS 0.75% cream BID for 4 weeks
Description: Case 1 involved a person with rosacea for 11 years. They had facial erythema and papules and pustules, with mild telangiectasia. There was burning sensation. This was associated with mild rhinophyma. There was foreign body sensation in the eyes. They had received tetracycline and sulfonamide based creams with no obvious improvement. At base line, there was more than usual number of demodex mites. They received DHIS 0.75% cream treatment BID for 4 weeks. […] See photos of the rosacea patient prior to treatment (FIG. 3A) and after 4 weeks of treatment (FIG. 3B).

demodex mites [4] = assay: Case study, acne patient; assay type: in vivo, human; conditions: Case 2, person with acne, DHIS 0.75% cream BID, 4 weeks
Description: Case 2 involved a person with more than 3 years of acnes symptoms. They had open comedons as well as closed comedons. There were papules and pustules but only mild erythema. They had received topical retinoic acid therapy with no improvement. In addition, they received benzoyl peroxide/antibiotic combination topical therapy, oral birth control pills, oral tetracycline, as well as oral Traditional Chinese Medicine concoction, all without satisfactory effects. They had increased demodex mite count at base line. […] Their facial acne papules and pustules resolved at the end of 4 weeks. See photos of the acne patient (cheeks and forehead) prior to treatment (FIGS. 4A and 5A) and after 4 weeks of treatment (FIGS. 4B and 5B).

Which results are given for `CC(C)c1c(O)cc(/C=C/c2ccccc2)cc1O` [DHIS, 3,5-Dihydroxy-4-isopropyl-trans-stilbene]?
Number mites dead (D. bravis; DHIS 1 μM, 0 hr): 0; (%) mites dead (D. bravis; DHIS 1 μM, 1 hr): (6.7) %; Number mites dead (D. bravis; DHIS 1 μM, 1 hr): 2; (%) mites dead (D. bravis; DHIS 1 μM, 2 hr): (13) %; Number mites dead (D. bravis; DHIS 1 μM, 2 hr): 4; (%) mites dead (D. bravis; DHIS 1 μM, 3 hr): (23) %; Number mites dead (D. bravis; DHIS 1 μM, 3 hr): 7; (%) mites dead (D. bravis; DHIS 1 μM, 4 hr): (33) %; Number mites dead (D. bravis; DHIS 1 μM, 4 hr): 10; Number mites dead (D. bravis; DHIS 10 μM, 0 hr): 0; (%) mites dead (D. bravis; DHIS 10 μM, 1 hr): (20) %; Number mites dead (D. bravis; DHIS 10 μM, 1 hr): 6; (%) mites dead (D. bravis; DHIS 10 μM, 2 hr): (37) %; Number mites dead (D. bravis; DHIS 10 μM, 2 hr): 11; (%) mites dead (D. bravis; DHIS 10 μM, 3 hr): (47) %; Number mites dead (D. bravis; DHIS 10 μM, 3 hr): 14; (%) mites dead (D. bravis; DHIS 10 μM, 4 hr): (63) %; Number mites dead (D. bravis; DHIS 10 μM, 4 hr): 19; Number mites dead (D. bravis; DHIS 100 μM, 0 hr): 0; (%) mites dead (D. bravis; DHIS 100 μM, 1 hr): (40) %; Number mites dead (D. bravis; DHIS 100 μM, 1 hr): 12; (%) mites dead (D. bravis; DHIS 100 μM, 2 hr): (63) %; Number mites dead (D. bravis; DHIS 100 μM, 2 hr): 19; (%) mites dead (D. bravis; DHIS 100 μM, 3 hr): (80) %; Number mites dead (D. bravis; DHIS 100 μM, 3 hr): 24; (%) mites dead (D. bravis; DHIS 100 μM, 4 hr): (87) %; Number mites dead (D. bravis; DHIS 100 μM, 4 hr): 26; Number mites dead (D. bravis; DHIS 1.0 mM, 0 hr): 0; (%) mites dead (D. bravis; DHIS 1.0 mM, 1 hr): (47) %; Number mites dead (D. bravis; DHIS 1.0 mM, 1 hr): 14; (%) mites dead (D. bravis; DHIS 1.0 mM, 2 hr): (60) %; Number mites dead (D. bravis; DHIS 1.0 mM, 2 hr): 18; (%) mites dead (D. bravis; DHIS 1.0 mM, 3 hr): (87) %; Number mites dead (D. bravis; DHIS 1.0 mM, 3 hr): 26; (%) mites dead (D. bravis; DHIS 1.0 mM, 4 hr): (87) %; Number mites dead (D. bravis; DHIS 1.0 mM, 4 hr): 26; Number mites dead (D. folliculorum; DHIS 1 μM, 0 hr): 0; (%) mites dead (D. folliculorum; DHIS 1 μM, 1 hr): (10) %; Number mites dead (D. folliculorum; DHIS 1 μM, 1 hr): 3; (%) mites dead (D. folliculorum; DHIS 1 μM, 2 hr): (17) %; Number mites dead (D. folliculorum; DHIS 1 μM, 2 hr): 5; (%) mites dead (D. folliculorum; DHIS 1 μM, 3 hr): (28) %; Number mites dead (D. folliculorum; DHIS 1 μM, 3 hr): 8.6; (%) mites dead (D. folliculorum; DHIS 1 μM, 4 hr): (43) %; Number mites dead (D. folliculorum; DHIS 1 μM, 4 hr): 13; Number mites dead (D. folliculorum; DHIS 10 μM, 0 hr): 0; (%) mites dead (D. folliculorum; DHIS 10 μM, 1 hr): (23) %; Number mites dead (D. folliculorum; DHIS 10 μM, 1 hr): 7; (%) mites dead (D. folliculorum; DHIS 10 μM, 2 hr): (41) %; Number mites dead (D. folliculorum; DHIS 10 μM, 2 hr): 12.3; (%) mites dead (D. folliculorum; DHIS 10 μM, 3 hr): (47) %; Number mites dead (D. folliculorum; DHIS 10 μM, 3 hr): 14; (%) mites dead (D. folliculorum; DHIS 10 μM, 4 hr): (73) %; Number mites dead (D. folliculorum; DHIS 10 μM, 4 hr): 22; Number mites dead (D. folliculorum; DHIS 100 μM, 0 hr): 0; (%) mites dead (D. folliculorum; DHIS 100 μM, 1 hr): (33) %; Number mites dead (D. folliculorum; DHIS 100 μM, 1 hr): 10; (%) mites dead (D. folliculorum; DHIS 100 μM, 2 hr): (72) %; Number mites dead (D. folliculorum; DHIS 100 μM, 2 hr): 21.7; (%) mites dead (D. folliculorum; DHIS 100 μM, 3 hr): (87) %; Number mites dead (D. folliculorum; DHIS 100 μM, 3 hr): 26; (%) mites dead (D. folliculorum; DHIS 100 μM, 4 hr): (92) %; Number mites dead (D. folliculorum; DHIS 100 μM, 4 hr): 27.7; Number mites dead (D. folliculorum; DHIS 1.0 mM, 0 hr): 0; (%) mites dead (D. folliculorum; DHIS 1.0 mM, 1 hr): (43) %; Number mites dead (D. folliculorum; DHIS 1.0 mM, 1 hr): 13; (%) mites dead (D. folliculorum; DHIS 1.0 mM, 2 hr): (80) %; Number mites dead (D. folliculorum; DHIS 1.0 mM, 2 hr): 24; (%) mites dead (D. folliculorum; DHIS 1.0 mM, 3 hr): (93) %; Number mites dead (D. folliculorum; DHIS 1.0 mM, 3 hr): 28; (%) mites dead (D. folliculorum; DHIS 1.0 mM, 4 hr): (97) %; Number mites dead (D. folliculorum; DHIS 1.0 mM, 4 hr): 29; miticidal activity in vitro (D. folliculorum; human demodex mites, Example 1): dose-dependent miticidal activity; erythema (demodex mites [1]; 4 weeks): reduced erythema was also statistically significant; itchiness and burning sensation (demodex mites [1]; 4 weeks): reduced; lesional counts for papules and pustules (demodex mites [1]; 4 weeks): dramatic reduction; demodex mite density (demodex mites [1]; 4 weeks compared with baseline): significant reduction; erythema (demodex mites [2]; 4 weeks): reduced erythema was also statistically significant; itchiness and burning sensation (demodex mites [2]; 4 weeks): reduced; lesional counts for papules and pustules (demodex mites [2]; 4 weeks): dramatic reduction; demodex mite density (demodex mites [2]; 4 weeks compared with baseline): significant reduction; demodex mite density (demodex mites [3]): markedly decreased; rosacea signs and symptoms (demodex mites [3]): dramatically improved; facial acne papules and pustules (demodex mites [4]): resolved; facial demodex mite density (demodex mites [4]): significantly decreased
